Consider nine compounds from PMC12683216, “Using High‐Throughput Screening to Identify Crosslinking Peptides That Control Cell‐Mediated Matrix Degradation” (Advanced Healthcare Materials, 2025).

Format in all cases: in vitro ADME, human
For one data set, the system named is MMP-14. Put plainly: Soluble peptide degradation, Cells condition (LC-MS). Conditions: human, cells or culture medium. On the procedure: (§1) Most in vitro protease activity assays incubate the peptides or proteins of interest with a single protease in a buffered solution. However, the kinetics of protease activity in tissues are complex and highly regulated, and both the activity^[ [37] ^] and substrate specificity^[ [38] ^] of proteases can be modulated through association with other proteins.^[ [39] ^] Most MMP‐substrate peptides are also cleaved by multiple proteases,^[ [5] ^] and within the context of biomaterials, the most important factor is typically how the combined activity of all proteases, rather than the activity of any specific protease, modifies the local microenvironment versus the activity due to any individual enzyme. We synthesized peptides identified in the TAILS proteomic screen that were present on proteins that are known to be secreted or found on the cell membrane, pooled them, and added them either to cell culture media on top of cells, the “Cells” condition, or conditioned media lacking cells, the “Media” condition (Figure 2A). The fraction of peptides remaining after 24 h in each condition was then quantified using LC‐MS. Soluble proteases should be present in both conditions, however, membrane‐type proteases should primarily be found in the samples containing cells and not the conditioned media samples. A key benefit of this approach is that it surveys the total functional proteolytic activity, including the effects of inhibitors and co‐factors, and quantifies the degradation rate of soluble peptides by the complete secretome of different cell types.
(§2) hUVECs (75000 per well) or hMSCs (36000 per well) were seeded into a 48 well plate, and 500 µL media was added to the wells. […] The peptide libraries were dissolved at a stock solution of 10 mM total peptide content. For libraries containing 38 peptides, 95 µL of the stock solution was added to each well; for libraries with 19 peptides, 47.5 µL was added to each well, and media was taken at 0 and 24 h. Add 4 µL of acetic acid to all collected media in the LC‐MS plates and store them in a −80 °C freezer to prevent further proteolytic degradation. From each sample, 10 µL of crude solution was introduced by the LC‐MS through a Thermo Scientific Vanquish LC System (Thermo Fisher Scientific), which outputted to a Thermo Scientific LTQ XL Linear Ion Trap Mass Spectrometer (Thermo Fisher Scientific). The sampled mixture was trapped on a column (ProntoSIL C18 AQ, 120 Å, 3 µm, 2.0 x 50 mm HPLC Column, PN 0502F184PS030, MAC‐MOD Analytical Inc.). The samples were loaded onto the column with a solvent containing acetonitrile/water, 5:95 (v/v) containing 1% acetic acid at a flow rate of 300 µL min^−1 and held for 1 min. The sample was then eluted from the column with a linear gradient of 5–40% Solvent B (1% acetic acid in acetonitrile) at the same flow rate for 5 min. This was followed by a 1 min ramp up to 100% Solvent B, where it was re‐equilibrated with Solvent A (1% acetic acid) to 5% solvent B over the course of 1 min and held there for 2 min. The column temperature was kept at a constant 29 °C, and the mass spectrometer was operated in positive ion mode. Using a Heated ESI, the Source Voltage was set to 4.1 kV, and the capillary temperature was 350 °C. For non‐library degradation studies, 2.5 µL of 10 mM peptide stock solution for each peptide was added.
(§3) In the MMP‐14 inhibitor study, the MMP‐14 inhibitor NSC 405 020 (Cayman Chemical Company) was dissolved in DMSO to make a 10 mM stock solution and stored in −20 °C freezer. 0.5 µL MMP‐14 inhibitor stock solution was added to each well to achieve a 10 µM final concentration.
(§4) For all degradation studies using soluble peptides, a non‐proteolytically degradable NH2‐βFβAβAβAβAβAβA‐amide (βFβA6) peptide, where βF is β‐phenylalanine and βA is β‐alanine, was added at a 50 µM concentration and used as an internal standard. Peptide degradation ratios were measured by LC‐MS and analyzed by Xcalibur. […]

Assay in data set [1]: as above
Conditions: human. How it is done: as §1, §2, §3, §4

A short description of data set [2]: Soluble peptide degradation, Media condition (cell-conditioned media, LC-MS). As to conditions: human; for remaining at 24 h: LC-MS. How it is done: as §1, §2
(§5) To assess the activity of the conditioned media, the media were divided into two equal portions. One portion was used for a standard degradation study, while the other was cultured for an additional 24 h before the PanMMP and KLVADLMASAE were added. After 24 h of incubation, the media were collected for further analysis. To assess the impact of recombinant MMP‐14 on PanMMP and KLVADLMASAE, recombinant MMP‐14 (antibodies.com) was dissolved in the media at a concentration of 0.5 nM. The remaining steps followed the standard degradation study protocol. […]

Assay in data set [3]: as above
As to conditions: human, 24 h, LC-MS. On the procedure:
as §1, §2, §5

Where [4] appears, read: hMSCs in culture with fresh media (Cells condition), Figure 2B heatmap, pooled TAILS-derived soluble peptides (Ac-βAla N-terminus, βAla-amide C-terminus) in media on hMSCs (36000 per well, 48 well plate, 500 µL), 24 h, LC-MS, ratio to βFβA6 internal standard, 24 h / 0 h, N = 5, read-out: Fraction of peptide remaining at 24 hours: hMSC Cells.
The mark [5] stands for this setting: hUVECs in culture with fresh media (Cells condition), Figure 2B heatmap, pooled TAILS-derived soluble peptides in media on hUVECs (75000 per well, 48 well plate, 500 µL), 24 h, LC-MS, ratio to βFβA6 internal standard, 24 h / 0 h, N = 5, read-out: Fraction of peptide remaining at 24 hours: hUVEC Cells.
Setting [6] is: Figure 2B heatmap, pooled TAILS-derived soluble peptides in 24 h hMSC-conditioned media without cells, ratio to βFβA6 internal standard, 24 h / 0 h, N = 5, read-out: Fraction of peptide remaining at 24 hours: hMSC Media.
[7] abbreviates: Figure 2B heatmap, pooled TAILS-derived soluble peptides in 24 h hUVEC-conditioned media without cells, ratio to βFβA6 internal standard, 24 h / 0 h, N = 5, read-out: Fraction of peptide remaining at 24 hours: hUVEC Media.
[8] abbreviates: hMSCs in culture with fresh media (Cells condition), Figure 3B heatmap, split-and-pool libraries KLVADX1X2ASAE (19 or 38 peptides per library) in media on hMSCs, 24 h, LC-MS, ratio to βFβA6, N = 2, read-out: Fraction of peptide remaining after 24 hours: hMSC Cells.
Where [9] appears, read: hUVECs in culture with fresh media (Cells condition), Figure 3B heatmap, split-and-pool libraries KLVADX1X2ASAE in media on hUVECs, 24 h, LC-MS, ratio to βFβA6, N = 2, read-out: Fraction of peptide remaining after 24 hours: hUVEC Cells.
Setting [10] is: hMSC-conditioned media without cells (Media condition), Figure 3B heatmap, split-and-pool libraries KLVADX1X2ASAE in hMSC-conditioned media without cells, ratio to βFβA6, N = 2, read-out: Fraction of peptide remaining after 24 hours: hMSC Media.
Where [11] appears, read: hUVEC-conditioned media without cells (Media condition), Figure 3B heatmap, split-and-pool libraries KLVADX1X2ASAE in hUVEC-conditioned media without cells, ratio to βFβA6, N = 2, read-out: Fraction of peptide remaining after 24 hours: hUVEC Media.

Where a SMILES comes first, the peptide text is derived from it. [ ]: non-standard residue; d: D form. βAla = NCCC(=O)O

In the case of `CC(=O)NCCC(=O)N[C@@H](CCCCN)C(=O)N[C@@H](CC(C)C)C(=O)N[C@H](C(=O)N[C@@H](C)C(=O)N[C@@H](CC(=O)O)C(=O)N1CCC[C@H]1C(=O)N[C@@H](CC(C)C)C(=O)N[C@@H](C)C(=O)N[C@@H](CO)C(=O)N[C@@H](C)C(=O)N[C@@H](CCC(=O)O)C(=O)NCCC(N)=O)C(C)C` [KLVAD-PL] (Ac-[βAla]KLVADPLASAE[βAla]-NH2), the share remaining at 24 h, 50 µM in the data set with MMP-14 was 99%; in the data set on MMP-14 (Fraction of peptide remaining after 24 hours: hMSC +Inhibitor), 94%; in data set [2] (cells or culture medium), 91%. Moreover, the fraction remaining at 24 h was 83% in data set [1] (cells or culture medium) and 51% in data set [1] (cells or culture medium, Fraction of peptide remaining after 24 hours: hMSC Cells).

Regarding `CC(=O)NCCC(=O)N1CCC[C@H]1C(=O)N1CCC[C@H]1C(=O)N[C@@H](CO)C(=O)N[C@@H](CCCNC(=N)N)C(=O)N[C@@H](Cc1c[nH]cn1)C(=O)N[C@@H](CC(=O)O)C(=O)N[C@H](C(=O)NCC(=O)N[C@H](C(=O)N1CCC[C@H]1C(=O)NCCC(N)=O)[C@@H](C)O)[C@@H](C)O` [PPSRHDTGTP] (Ac-[βAla]PPSRHDTGTP[βAla]-NH2), the amount remaining at 24 h in data set [1] (setting [4]) was found to be 100%; in data set [1] (setting [5]) it was 103%; in data set [2] (setting [6]), 87%; in data set [3] (setting [7]), 104%.

As for `CC(=O)NCCC(=O)N[C@@H](CCCCN)C(=O)N[C@@H](CC(C)C)C(=O)N[C@H](C(=O)N[C@@H](C)C(=O)N[C@@H](CC(=O)O)C(=O)N[C@@H](CO)C(=O)N[C@@H](CC(=O)O)C(=O)N[C@@H](C)C(=O)N[C@@H](CO)C(=O)N[C@@H](C)C(=O)N[C@@H](CCC(=O)O)C(=O)NCCC(N)=O)C(C)C` [Ser-Asp] (Ac-[βAla]KLVADSDASAE[βAla]-NH2), the amount remaining at 24 h in data set [1] (setting [8]) was found to be 48%; in data set [1] (setting [9]), 84%; in data set [2] (setting [10]) it was 71%; in data set [3] (setting [11]), 94%.

Regarding `CC(=O)NCCC(=O)N[C@@H](CCCCN)C(=O)N[C@@H](CC(C)C)C(=O)N[C@H](C(=O)N[C@@H](C)C(=O)N[C@@H](CC(=O)O)C(=O)N[C@@H](Cc1ccc(O)cc1)C(=O)N1CCC[C@H]1C(=O)N[C@@H](C)C(=O)N[C@@H](CO)C(=O)N[C@@H](C)C(=O)N[C@@H](CCC(=O)O)C(=O)NCCC(N)=O)C(C)C` [Tyr-Pro] (Ac-[βAla]KLVADYPASAE[βAla]-NH2), the share remaining at 24 h in data set [1] (setting [8]) amounted to 35%; in data set [1] (setting [9]), 89%; in data set [2] (setting [10]), 65%; in data set [3] (setting [11]) it was 96%.

In the case of `CC(=O)NCCC(=O)N[C@@H](CCCCN)C(=O)N[C@@H](CC(C)C)C(=O)N[C@H](C(=O)N[C@@H](C)C(=O)N[C@@H](CC(=O)O)C(=O)N1CCC[C@H]1C(=O)N[C@H](C(=O)N[C@@H](C)C(=O)N[C@@H](CO)C(=O)N[C@@H](C)C(=O)N[C@@H](CCC(=O)O)C(=O)NCCC(N)=O)C(C)C)C(C)C` [Pro-Val] (Ac-[βAla]KLVADPVASAE[βAla]-NH2), the share remaining at 24 h in data set [1] (setting [8]) stood at 51%; in data set [1] (setting [9]) it was 92%; in data set [2] (setting [10]), 84%; in data set [3] (setting [11]), 100%.

Turning to `CC(=O)NCCC(=O)N[C@@H](CCCCN)C(=O)N[C@@H](CC(C)C)C(=O)N[C@H](C(=O)N[C@@H](C)C(=O)N[C@@H](CC(=O)O)C(=O)NCC(=O)N[C@@H](Cc1ccc(O)cc1)C(=O)N[C@@H](C)C(=O)N[C@@H](CO)C(=O)N[C@@H](C)C(=O)N[C@@H](CCC(=O)O)C(=O)NCCC(N)=O)C(C)C` [Gly-Tyr] (Ac-[βAla]KLVADGYASAE[βAla]-NH2), the fraction remaining at 24 h stood at 48% in data set [1] (setting [8]), 88% in data set [1] (setting [9]), 74% in data set [2] (setting [10]) and 100% in data set [3] (setting [11]).

`CC(=O)NCCC(=O)N[C@@H](CC(C)C)C(=O)N[C@@H](C)C(=O)N[C@@H](CC(C)C)C(=O)N[C@@H](CCC(=O)O)C(=O)N[C@@H](C)C(=O)N[C@@H](CCCNC(=N)N)C(=O)N[C@H](C(=O)N[C@H](C(=O)N[C@@H](CC(=O)O)C(=O)N[C@@H](CC(C)C)C(=O)NCCC(N)=O)[C@@H](C)O)[C@@H](C)O` [LALEARTTDL] (Ac-[βAla]LALEARTTDL[βAla]-NH2): the share remaining at 24 h in data set [1] (setting [4]) was determined as 68%; in data set [1] (setting [5]), 94%; in data set [2] (setting [6]), 86%; in data set [3] (setting [7]), 104%.

As for `CC(=O)NCCC(=O)N[C@@H](CCCCN)C(=O)N[C@@H](CC(C)C)C(=O)N[C@H](C(=O)N[C@@H](C)C(=O)N[C@@H](CC(=O)O)C(=O)N1CCC[C@H]1C(=O)N[C@@H](Cc1c[nH]c2ccccc12)C(=O)N[C@@H](C)C(=O)N[C@@H](CO)C(=O)N[C@@H](C)C(=O)N[C@@H](CCC(=O)O)C(=O)NCCC(N)=O)C(C)C` [Pro-Trp] (Ac-[βAla]KLVADPWASAE[βAla]-NH2), the share remaining at 24 h in data set [1] (setting [8]) amounted to 38%; in data set [1] (setting [9]), 81%; in data set [2] (setting [10]), 66%; in data set [3] (setting [11]) it was 94%.

On to `CC(=O)NCCC(=O)N[C@@H](CCCCN)C(=O)N[C@@H](CC(C)C)C(=O)N[C@H](C(=O)N[C@@H](C)C(=O)N[C@@H](CC(=O)O)C(=O)N[C@@H](CC(C)C)C(=O)N[C@@H](Cc1c[nH]c2ccccc12)C(=O)N[C@@H](C)C(=O)N[C@@H](CO)C(=O)N[C@@H](C)C(=O)N[C@@H](CCC(=O)O)C(=O)NCCC(N)=O)C(C)C` [Leu-Trp] (Ac-[βAla]KLVADLWASAE[βAla]-NH2), for which the fraction remaining at 24 h came out at 37% in data set [1] (setting [8]), 91% in data set [1] (setting [9]), 62% in data set [2] (setting [10]) and 98% in data set [3] (setting [11]).
